Seven compounds from ChEMBL document CHEMBL5465560, “Selectivity Literature for EUbOPEN Chemogenomic Library” (2024) can be followed below.

For test [1], the target named is Serine/threonine-protein kinase 25 (Homo sapiens) (UniProt O00506). Nature of the test: Selectivity interaction (Kinase panel (Z-LYTE Assay)) EUB0001632a STK25. The note with it: at 10 µM.
Test [2] has as its target T1, Interleukin-1 receptor-associated kinase 4 (Homo sapiens) (UniProt Q9NWZ3).
T1 sequence (whole entry): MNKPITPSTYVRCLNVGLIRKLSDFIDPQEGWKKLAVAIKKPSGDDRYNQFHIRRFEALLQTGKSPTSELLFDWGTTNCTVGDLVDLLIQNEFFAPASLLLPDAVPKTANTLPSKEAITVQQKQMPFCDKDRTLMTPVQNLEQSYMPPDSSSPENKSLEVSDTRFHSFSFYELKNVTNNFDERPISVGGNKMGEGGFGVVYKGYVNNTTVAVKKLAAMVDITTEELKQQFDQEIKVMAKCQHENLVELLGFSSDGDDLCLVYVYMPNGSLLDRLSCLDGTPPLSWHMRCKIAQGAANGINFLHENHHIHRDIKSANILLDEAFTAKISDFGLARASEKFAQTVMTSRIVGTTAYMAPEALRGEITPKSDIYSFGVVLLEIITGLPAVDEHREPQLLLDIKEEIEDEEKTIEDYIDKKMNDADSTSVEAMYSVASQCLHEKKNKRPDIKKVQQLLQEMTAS
Nature of the test: Selectivity interaction (SelectScreen profiling (Invitrogen)) EUB0000607a IRAK4. The note with it: at 2 µM.

In test [3] the target is Fibroblast growth factor receptor 2 (Homo sapiens) (UniProt P21802). Nature of the test: Selectivity interaction (KinomeScan (DiscoverX)) EUB0000666a FGFR2. Particulars: at 10 µM.
Chain of Fibroblast growth factor receptor 2 (Homo sapiens) (P21802 22-821 limits assumed): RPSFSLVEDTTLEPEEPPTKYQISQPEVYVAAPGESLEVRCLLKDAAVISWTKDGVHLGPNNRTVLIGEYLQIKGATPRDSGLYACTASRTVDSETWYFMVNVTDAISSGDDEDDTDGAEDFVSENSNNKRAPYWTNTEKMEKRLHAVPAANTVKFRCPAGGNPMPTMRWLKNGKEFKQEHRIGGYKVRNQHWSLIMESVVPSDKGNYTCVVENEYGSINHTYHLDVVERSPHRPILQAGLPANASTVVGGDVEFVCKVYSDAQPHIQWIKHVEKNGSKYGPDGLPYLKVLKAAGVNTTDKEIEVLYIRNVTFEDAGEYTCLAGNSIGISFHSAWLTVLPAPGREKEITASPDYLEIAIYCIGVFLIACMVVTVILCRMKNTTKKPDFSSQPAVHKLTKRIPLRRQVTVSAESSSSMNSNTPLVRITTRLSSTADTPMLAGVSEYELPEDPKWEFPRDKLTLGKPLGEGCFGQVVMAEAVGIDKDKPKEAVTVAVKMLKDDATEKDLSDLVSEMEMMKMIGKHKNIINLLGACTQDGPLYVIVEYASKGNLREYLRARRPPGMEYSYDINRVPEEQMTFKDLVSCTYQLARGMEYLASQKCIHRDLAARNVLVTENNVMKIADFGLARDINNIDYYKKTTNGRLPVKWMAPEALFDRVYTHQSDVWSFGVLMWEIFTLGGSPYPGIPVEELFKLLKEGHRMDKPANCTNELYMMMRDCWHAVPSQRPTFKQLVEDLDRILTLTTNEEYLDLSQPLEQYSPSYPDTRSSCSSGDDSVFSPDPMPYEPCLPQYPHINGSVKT
For test [4], the target named is Protein arginine N-methyltransferase 7 (Homo sapiens, UniProt Q9NVM4). Description: Selectivity interaction (Scintillation proximity assays) EUB0000255b PRMT7. Background: In a scintillation proximity assay essentially only radioactivity close to the scintillant gives light.
Chain of Protein arginine N-methyltransferase 7 (Q9NVM4 whole entry): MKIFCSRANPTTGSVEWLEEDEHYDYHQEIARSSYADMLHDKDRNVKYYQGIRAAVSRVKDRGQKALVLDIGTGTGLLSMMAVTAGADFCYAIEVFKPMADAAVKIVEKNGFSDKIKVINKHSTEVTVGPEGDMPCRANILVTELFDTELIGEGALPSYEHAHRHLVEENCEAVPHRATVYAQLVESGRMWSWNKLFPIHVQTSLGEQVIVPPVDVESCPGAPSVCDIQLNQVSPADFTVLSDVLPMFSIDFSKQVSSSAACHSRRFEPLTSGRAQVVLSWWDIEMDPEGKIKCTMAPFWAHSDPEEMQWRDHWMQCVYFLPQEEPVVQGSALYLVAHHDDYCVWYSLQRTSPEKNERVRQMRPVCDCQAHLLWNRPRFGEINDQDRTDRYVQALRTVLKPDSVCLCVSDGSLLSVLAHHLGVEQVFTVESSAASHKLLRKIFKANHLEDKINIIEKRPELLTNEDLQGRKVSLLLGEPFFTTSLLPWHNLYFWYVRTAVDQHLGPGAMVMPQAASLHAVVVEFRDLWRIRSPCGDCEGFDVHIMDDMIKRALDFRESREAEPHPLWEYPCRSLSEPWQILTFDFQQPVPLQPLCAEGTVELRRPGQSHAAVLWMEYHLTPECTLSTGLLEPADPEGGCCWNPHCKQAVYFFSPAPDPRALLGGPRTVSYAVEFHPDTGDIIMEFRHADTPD
The target in test [5] is T2, Dual specificity mitogen-activated protein kinase kinase 3 (Homo sapiens) (UniProt P46734).
T2 sequence (whole entry): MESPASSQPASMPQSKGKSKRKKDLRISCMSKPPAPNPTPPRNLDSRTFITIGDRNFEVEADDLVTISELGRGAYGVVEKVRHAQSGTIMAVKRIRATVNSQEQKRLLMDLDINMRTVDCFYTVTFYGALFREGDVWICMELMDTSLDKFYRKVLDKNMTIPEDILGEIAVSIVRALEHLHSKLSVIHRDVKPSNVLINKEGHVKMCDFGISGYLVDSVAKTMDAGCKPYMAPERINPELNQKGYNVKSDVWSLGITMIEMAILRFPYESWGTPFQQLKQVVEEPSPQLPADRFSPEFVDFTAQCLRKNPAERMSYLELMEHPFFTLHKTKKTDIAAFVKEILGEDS
Nature of the test: Selectivity interaction (ActivX KiNativ screen (ex vivo kinase selectivity in human PBMCs)) EUB0001619a MAP2K3. It is filed as cell-based. The note with it: PBMC, at 1 µM.

The target of test [6] is T3, Serine/threonine-protein kinase Nek1 (Homo sapiens) (UniProt Q96PY6).
T3 sequence (whole entry): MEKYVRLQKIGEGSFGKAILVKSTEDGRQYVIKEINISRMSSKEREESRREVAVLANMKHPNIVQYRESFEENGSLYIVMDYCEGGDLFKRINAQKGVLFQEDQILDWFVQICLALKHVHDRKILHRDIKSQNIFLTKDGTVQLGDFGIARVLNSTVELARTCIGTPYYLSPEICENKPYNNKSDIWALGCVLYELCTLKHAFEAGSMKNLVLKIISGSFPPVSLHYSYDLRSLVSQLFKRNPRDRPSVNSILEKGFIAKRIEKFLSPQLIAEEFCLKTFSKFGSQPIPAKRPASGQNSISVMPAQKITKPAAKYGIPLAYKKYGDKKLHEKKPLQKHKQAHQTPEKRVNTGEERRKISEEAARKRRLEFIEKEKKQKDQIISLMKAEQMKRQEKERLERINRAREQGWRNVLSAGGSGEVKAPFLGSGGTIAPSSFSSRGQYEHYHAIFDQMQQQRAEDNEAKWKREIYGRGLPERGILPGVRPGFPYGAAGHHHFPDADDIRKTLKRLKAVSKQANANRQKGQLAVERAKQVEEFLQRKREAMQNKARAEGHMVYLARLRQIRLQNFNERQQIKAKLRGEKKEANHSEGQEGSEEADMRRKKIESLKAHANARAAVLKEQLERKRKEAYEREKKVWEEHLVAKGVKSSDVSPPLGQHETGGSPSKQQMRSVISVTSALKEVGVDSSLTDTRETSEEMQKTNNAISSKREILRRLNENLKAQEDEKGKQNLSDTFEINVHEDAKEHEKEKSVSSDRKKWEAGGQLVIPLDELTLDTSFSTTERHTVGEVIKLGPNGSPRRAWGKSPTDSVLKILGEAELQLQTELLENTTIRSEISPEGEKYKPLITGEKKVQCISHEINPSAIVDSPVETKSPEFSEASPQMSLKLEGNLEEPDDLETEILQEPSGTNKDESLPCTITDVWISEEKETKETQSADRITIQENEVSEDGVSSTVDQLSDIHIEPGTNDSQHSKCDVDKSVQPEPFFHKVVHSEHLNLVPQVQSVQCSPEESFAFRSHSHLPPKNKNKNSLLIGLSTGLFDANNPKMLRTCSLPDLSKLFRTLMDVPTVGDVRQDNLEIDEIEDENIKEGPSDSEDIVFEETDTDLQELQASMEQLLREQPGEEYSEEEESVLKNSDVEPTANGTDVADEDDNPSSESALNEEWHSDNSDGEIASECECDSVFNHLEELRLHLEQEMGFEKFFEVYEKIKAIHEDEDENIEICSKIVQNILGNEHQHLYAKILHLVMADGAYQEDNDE
Nature of the test: Selectivity interaction (ActivX KiNativ screen (kinase selectivity in THP-1 cell lysates)) EUB0000639a NEK1. The note with it: lysate. The class given is subcellular.

Test [7] addresses T3, Serine/threonine-protein kinase Nek1 (Homo sapiens). Nature of the test: Selectivity interaction (KinomeScan (DiscoverX)) EUB0000092b NEK1. Particulars: at 10 µM.

Bounds are passed on as bounds.

Chain of Serine/threonine-protein kinase 25 (Homo sapiens) (O00506 whole entry, looked up): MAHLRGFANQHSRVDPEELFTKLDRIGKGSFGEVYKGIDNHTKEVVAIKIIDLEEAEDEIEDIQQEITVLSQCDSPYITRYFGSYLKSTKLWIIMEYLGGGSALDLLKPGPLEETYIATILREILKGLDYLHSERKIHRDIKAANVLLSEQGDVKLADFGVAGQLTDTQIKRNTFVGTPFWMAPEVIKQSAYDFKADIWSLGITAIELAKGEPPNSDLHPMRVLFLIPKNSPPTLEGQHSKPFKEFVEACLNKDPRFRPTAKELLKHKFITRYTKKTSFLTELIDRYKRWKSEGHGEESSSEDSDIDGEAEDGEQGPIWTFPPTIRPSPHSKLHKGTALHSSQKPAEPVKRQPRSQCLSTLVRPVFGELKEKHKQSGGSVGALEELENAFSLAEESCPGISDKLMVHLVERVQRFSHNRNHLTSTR

In turn, `Cn1cc(-n2cnc3c(NCc4nc5cc(Cl)c(Cl)cc5[nH]4)nc(N4CCOCC4)nc32)cn1` came in with a % of control in test [1] of 17.9%.
As for `CNC(=O)Nc1ccc(-c2nc(N3CC4CCC(C3)O4)c3cnn(C4CCC5(CC4)OCCO5)c3n2)cc1`, the % of inhibition in test [2] is 3%.
`O=C(NOC[C@H](O)CO)c1ccc(F)c(F)c1Nc1ccc(I)cc1F` had a % of control in test [3] of 100%.
Usually IC50 stands for the point on the concentration scale where inhibition reaches its midpoint. Lower therefore signals greater potency in that assay. The compound `COCCN1CCC(c2cc(CN(C)C(=O)c3cccc(Oc4ccccc4)c3)ccn2)CC1` had an IC50 in test [4] above 10 µM.
Turning to `N#Cc1cccc(-c2c[nH]c3ncnc(N4CCOCC4)c23)c1`, in test [5], the % of inhibition was -5%.
As for `CC[C@@H]1[C@H](F)C(=O)N[C@@H]1COc1nccc2cc(C(N)=O)c(OC)cc12` [ZIMLOVISERTIB], the % of inhibition in test [6] (at 0.01 µM) is -0.6%; in test [6] (at 0.04 µM) it was 7%; in test [6] (at 0.2 µM), 14.4%; in test [6] (at 1 µM) it was 4.9%; in test [6] (at 5 µM) it was -6.3%.
Turning to `CCC(=O)N1CCN(c2ccc(-n3c(=O)ccc4cnc5ccc(-c6cnc7ccccc7c6)cc5c43)cc2C(F)(F)F)CC1`, the % of control in test [7] was found to be 89%.
